Laboratory results as given in US20210283211A1, “COMPOSITIONS AND METHODS OF ALLEVIATING RESISTANCE TO CHEMOTHERAPY” (CITY OF HOPE, priority 2019, published 2021).

Tests used:
H2009 cells = test: cells; type: cell-based; details: Homo sapiens
Experimental: Cell viability assay: Cell Counting Kit-8 (CCK-8) was purchased from Dojindo Molecular Technologies (Rockville, Md., USA). Cells were seeded on a 96-well plate and allowed to adhere in complete medium for 24 hours. Test compounds were added to 100 μl of medium at the indicated concentrations for 72 hours. Ten μl of the CCK-8 reagent were added to each well and absorbance at 450 nm was measured using a Tecan Spark 10M multimode microplate reader.
(§1) Then a sublethal dose was used to determine the effect of these compounds on ITGB4 and PXN expression and caspase activity (FIG. 9I). […] These eleven compounds were further screened in the cisplatin-resistant cell line H2009. […] Further, carfilzomib was tested in another cisplatin-resistant cell line H1993.

H1993 cells = test: Carfilzomib dose response on cell proliferation, IC50 determination; type: cell-based, human; details: increasing dose
Experimental: Cell proliferation and apoptosis assay. Cell proliferation assays were performed using cell lines stably transfected with NucLight Red Lentivirus (Essen Bioscience) to accurately visualize and count the nucleus of a single cell. Cells were seeded on a 96-well plate and allowed to adhere for 24 hours. Test compounds were added at indicated concentrations. Caspase-3/7 Green Apoptosis Reagent (Essen Bioscience) was also added as a green fluorescent indicator of caspase-3/7-mediated apoptotic activity. To monitor cell proliferation and apoptosis over time, the plate was placed in the IncuCyte S3 Live-Cell Analysis System (Essen BioScience) and images were acquired every 2 hours. Data analysis was generated by the IncuCyte software using a red fluorescence mask to accurately count each cell nucleus and a green fluorescence mask to measure apoptosis over time.
as §1

Q: How did the cytotoxicity at 0.08 µM (H2009 cells; NCI-H2009, 72 h, read-out: reduction in the cell viability) turn out when `CC(C)C[C@H](NC(=O)[C@H](CCc1ccccc1)NC(=O)CN1CCOCC1)C(=O)N[C@@H](Cc1ccccc1)C(=O)N[C@@H](CC(C)C)C(=O)[C@@]1(C)CO1` [Carfilzomib] was run?
A: 80%

Q: What about the IC50 (H2009 cells; NCI-H2009, H2009 cells, increasing dose, 72 hours) of the same molecule?
A: 0.418 µM

Q: What about the IC50 (H1993 cells; H1993 cells) of the same molecule?
A: 1.77 µM

Q: And the IC50 (H1993 cells; Homo sapiens, NCI-H1993, H1993 cells)?
A: 1.7 µM
